Laboratory results published in patent US8618074B2, “GPCR enhanced neuroprotection to treat brain injury” (Board of Regents of the University of Texas System, priority 2007, dated 2013).

What was measured:
astrocytes [1] = assay: Fura-2 two-photon imaging of intracellular Ca2+ response; type: cell-based, mouse
Description: Ca^2+ activity was imaged as previously described (Camacho and Lechleiter, 1995). In brief, cultured astrocytes were incubated with the fura-2 am (Molecular Probes, #F-1221) 30 min prior to the experiment. Images were acquired with two-photon excitation (800 nm) at the rate of 1.5 images/ sec. […] Images were analyzed with Image J and ANALYZE® software (the Mayo Foundation, Rochester, MN). The D-enantiomer of the 1P3-BM ester was synthesized by Stuart Conway in the Cambridge University Chemical Laboratory by using a modification of the protocol of Tsien and co-workers (Li et al., 1997).
The primary response of glial cells to extracellular ATP is an increase in intracellular Ca^2+. To investigate whether the protective effect of ATP could be initiated by a Ca^2+ response, we loaded cultures of astrocytes with the Ca^2+ indicator dye Fura-2 AM (10 μM for 30 minutes). Fura-2 fluorescence was imaged with 2-photon microscopy using 800 nm excitation. At this wavelength, fluorescence is primarily due to the Ca^2+ free form of fura-2. […] When young astrocyte cultures were exposed to extracellular ATP (10 μM for 10 minutes), the peak intracellular Ca^2+ (−ΔF/F) was increased to 0.46±0.02 (n=25, pooled from 2 experiments). […] We tested whether the ATP-induced Ca^2+ response could be attributed to the metabotropic pathway, since IP3 mediated Ca^2+ release can stimulate mitochondrial energy production as well as sensitize mitochondria to apoptotic stimuli. Astrocytes cultured from old mice were pretreated with Xestospongin C (XeC, 25 μM for 30 minutes), which is a competitive inhibitor of IP3 binding to the IP3R. […] This is consistent with other reports showing that activation of the ionotropic P2X receptor activation also increases Ca^2+ in cultured astrocytes. To determine whether the metabotropic pathway was involved with the protective effect of extracellular ATP, we subsequently exposed the XeC/ATP treated astrocytes to oxidative stress. As described above, the perfusate contained t-BuOOH (100 μM) and TMRE (200 nM) to monitor ΔΨ. Under these experimental conditions, the average time until ΔΨ collapse was reduced to 5.48±0.22 (n=23, pooled from 2 experiments) in young astrocytes (FIG. 1C) and to 4.02±0.18 h (n=19, pooled from 2 experiments) in old astrocytes (FIG. 2C). […] We concluded that the protective effect of ATP on astrocytes was mediated by P2Y-receptors (P2Y-Rs).

astrocytes [2] = assay: Confocal Ca2+ imaging of astrocytes on bath application of ATP; type: cell-based, mouse; conditions: bath application of ATP 1 μM; cultured young and old astrocytes
Text: The next physiological response that we investigated during aging was intracellular Ca^2+ signaling. Metabotropic purinergic receptors (P2Y-Rs) are well known to generate robust Ca^2+ signals in astrocytes. Our initial bias was that we would observe reduced Ca^2+ responses in astrocytes cultured from old mice. […] Ca^2+ measurements were made using standard confocal imaging of Ca^2+ sensitive fluorescent dyes, which loaded equally well for both young and old astrocytes. […] The first surprise finding was that a higher percentage of old astrocytes (more than half) responded to exogenously applied ATP. […] However, we can account for these observed enhancements to cytosolic Ca^2+ signaling in old astrocytes by a reduced ability of mitochondria to sequester Ca^2+ during aging. […] The ability of mitochondria to sequester Ca^2+, and thereby modulate IP3-induced Ca^2+ release, is critically dependent on the mitochondrial membrane potential (ΔΨ) and close proximity of mitochondria to the Ca^2+ release site. This proximity allows mitochondria to sense greater Ca^2+ concentrations than those present in the bulk cytosolic compartment. Consequently, a reduction in ΔΨ with age will reduce mitochondrial Ca^2+ buffering, thereby leading to increased cytosolic Ca^2+ release and faster Ca^2+ dynamics.

astrocytes [3] = assay: Rose Bengal induced blood clot, Fluo4 Ca2+ imaging of astrocytes in live mouse; type: in vivo; conditions: 2-MeSADP co-injected with Rose Bengal in tail vein; blood brain barrier breakdown at clot
Description: Our working hypothesis states that P2Y-R activation in astrocytes leads to intracellular Ca^2+ release. […] In this experiment, the Ca^2+ indicator Fluo4-AM was loaded into astrocytes (90 minutes, 100 μM). Rose Bengal (RB) and the P2Y-R specific agonist 2-MeSADP were then co-injected in the tail vein of a live mouse. RB was illuminated with green light (543 nm), inducing reactive singlet oxygen and blood clots. A blood vessel was free flowing at 180 minutes, then clotted around 220 minutes after RB injection. […] More distal astrocytes a4 and a5 were not activated.

[4] = tested on: RB-induced cerebral infarcts in the mouse cortex; assay: RB-induced photothrombotic cerebral infarct size, small animal imaging with PE-Cy5.5 anti-CD40; type: in vivo
Description: These set of experiments utilizes small animal imaging studies to non-invasively study the impact of G-protein stimulated IP3-gated Ca^2+ release on astrocyte neuroprotection during the aging process. In brief, focal cerebral infarcts are induced using photothrombosis as described in EXAMPLE 8. However, irradiation of the brain with green light is carried out through the cranium with a 10× objective. […] We observe the size of the lesion in subsequent days by taking advantage of an inflammatory response at the lesion, which we label with a fluorescently conjugated antibody to CD40 (PE-Cy5.5-anti-mouse-CD40). […] It has also been reported that the PE-Cy5.5 CD40 antibody localized to activated endothelium at the brain lesion and to blood derived cells of the mononuclear lineage. We have successfully used this approach to image RB-induced brain inflammation in mice with high sensitivity and specificity. […] To carry out these experiments, 3 mice were imaged. On the day of the initial photothrombosis, one mouse was injected with Rose Bengal, one with Rose Bengal and 2-MeSADP and the third mouse was injected only with saline. […] For one set of mice, we re-imaged the mice at day 17 post occlusion and found CD40 labeling undetectable in the 2-MeSADP injected mouse. […] Finally, in one mouse, we also injected a fluorescent dye (IR-820) on day 3 that is a strong indicator of blood brain barrier dysfunction. Accumulation of this dye at the site of a lesion is consistent with a permeant (i.e., compromised) blood brain barrier. As noted above small animal imaging has been successfully employed to progressively follow and measure the size of Rose Bengal (RB)-induced brain infarcts in live mice for over 2 weeks.

Compound	peak Ca2+ amplitude (−ΔF/F) (astrocytes [1]; old astrocytes, ATP 10 μM)	peak intracellular Ca2+ (−ΔF/F) (astrocytes [1]; young astrocytes, ATP 10 μM for 10 minutes)	Ca2+ oscillations (astrocytes [2])	activation (Ca2+) of astrocytes near the RB-induced clot (astrocytes [3])	size of the cerebral infarct ([4]; 2-MeSADP introduced 24 hours later)	size of the cerebral infarct ([4]; 2-MeSADP present during the initial photothrombosis (day 0))	size of the lesion ([4]; day 3 after cerebral infarction, co-injected with Rose Bengal, versus Rose Bengal or saline alone)	CD40 labeling ([4]; day 17 post occlusion)
Nc1ncnc2c1ncn2[C@@H]1O[C@H](COP(=O)(O)OP(=O)(O)OP(=O)(O)O)[C@@H](O)[C@H]1O [ATP]	0.46±0.04	0.46±0.02	stimulated Ca^2+ oscillations	–	–	–	–	–
CSc1nc(N)c2ncn([C@@H]3O[C@H](COP(=O)(O)OP(=O)(O)O)[C@@H](O)[C@H]3O)c2n1 [2-MeSADP]	–	–	–	activate nearby astrocytes	reduced	reduced	significantly smaller	undetectable
